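Compound exposure: 48 hours, 5 concentrations, 96-well plates. At the TGI there is no net growth.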
Columns and labels:
Assay in all cases: growth of human tumour cells (NCI), 48 h
[1] = test system: SK-MEL-2 melanoma
[2] = test system: MALME-3M melanoma
[3] = test system: CAKI-1 renal
[4] = test system: NCI-H226 lung
[5] = test system: LXFL 529 NSCLC
[6] = test system: KM12 colon
[7] = test system: SK-MEL-28 melanoma
[8] = test system: 786-0 renal
[9] = test system: IGROV1 ovarian
[10] = test system: LOX IMVI melanoma
[11] = test system: OVCAR-8 ovarian
[12] = test system: NCI-H460 lung
[13] = test system: SK-OV-3 ovarian
[14] = test system: NCI-H522 lung
[15] = test system: HL-60(TB) leukemia
[16] = test system: KM20L2 colon
[17] = test system: CCRF-CEM leukemia
[18] = test system: UO-31 renal
[19] = test system: SF-268 CNS
[20] = test system: DLD-1 colon
[21] = test system: HT29 colon
[22] = test system: UACC-62 melanoma
[23] = test system: A549 NSCLC
[24] = test system: HCT-15 colon
[25] = test system: SNB-19 CNS
[26] = test system: SK-MEL-5 melanoma
[27] = test system: HOP-18 NSCLC
[28] = test system: M14 melanoma
[29] = test system: SNB-78 CNS
[30] = test system: HCT-116 colon
[31] = test system: DMS 114 small cell lung
[32] = test system: SW-620 colon
[33] = test system: HOP-62 NSCLC
[34] = test system: NCI-H23 lung
[35] = test system: TK-10 renal
[36] = test system: COLO 205 colon
[37] = test system: OVCAR-5 ovarian
[38] = test system: RXF-631 renal
[39] = test system: DMS 273 small cell lung
[40] = test system: SR leukemia
[41] = test system: ACHN renal
[42] = test system: SNB-75 CNS
[43] = test system: RPMI-8226 leukemia
[44] = test system: A498 renal
[45] = test system: RXF 393 renal
[46] = test system: OVCAR-3 ovarian
[47] = test system: OVCAR-4 ovarian
[48] = test system: UACC-257 melanoma
[49] = test system: SN12C renal
[50] = test system: HCC-2998 colon
[51] = test system: MOLT-4 leukemia
[52] = test system: HOP-92 NSCLC
[53] = test system: SF-295 CNS
[54] = test system: U251 CNS
[55] = test system: SF-539 CNS
[56] = test system: K-562 leukemia
[57] = test system: M19-MEL melanoma
[58] = test system: EKVX NSCLC

Compound `O=c1c(O)c(-c2ccccc2)n(O)c2ccc(Cl)cc12` has a TGI [1] of 58.6 µM, a TGI [2] greater than 100 µM and a TGI [3] of 71.1 µM. For the same compound, the TGI [4] was 45.1 µM, the TGI [5] was 64 µM and the TGI [6] was 80.9 µM. It also gave a TGI [7] greater than 100 µM, a TGI [8] greater than 100 µM and a TGI [9] of 89.9 µM. For the same compound, the TGI [10] was 27.2 µM, the TGI [11] was 52.1 µM and the TGI [12] was 69.2 µM. For the same compound, the TGI [13] was 78.6 µM, the TGI [14] was 51.7 µM and the TGI [15] was 62.8 µM. It also gave a TGI [16] of 83.9 µM, a TGI [17] greater than 100 µM and a TGI [18] greater than 100 µM. For the same compound, the TGI [19] was greater than 100 µM, the TGI [20] was greater than 100 µM and the TGI [21] was greater than 100 µM. It also gave a TGI [22] of 55.3 µM, a TGI [23] greater than 100 µM and a TGI [24] of 49.6 µM. For the same compound, the TGI [25] was greater than 100 µM, the TGI [26] was 42.1 µM and the TGI [27] was greater than 100 µM. For the same compound, the TGI [28] was greater than 100 µM, the TGI [29] was greater than 100 µM and the TGI [30] was 24.6 µM. For the same compound, the TGI [31] was 54.9 µM, the TGI [32] was 34.5 µM and the TGI [33] was 60.3 µM. For the same compound, the TGI [34] was greater than 100 µM, the TGI [35] was 72.3 µM and the TGI [36] was greater than 100 µM. The TGI [37] was 95.3 µM, the TGI [38] was greater than 100 µM and the TGI [39] was 58.6 µM. The TGI [40] was greater than 100 µM, the TGI [41] was 74 µM and the TGI [42] was 80.8 µM. It also gave a TGI [43] greater than 100 µM, a TGI [44] of 78.4 µM and a TGI [45] of 63 µM. The TGI [46] was greater than 100 µM, the TGI [47] was greater than 100 µM and the TGI [48] was greater than 100 µM. The TGI [49] was 49.8 µM, the TGI [50] was 40.1 µM and the TGI [51] was greater than 100 µM. The TGI [52] was 96.5 µM, the TGI [53] was greater than 100 µM and the TGI [54] was greater than 100 µM. For the same compound, the TGI [55] was 48 µM and the TGI [56] was greater than 100 µM.

Work on `CC1CCCP(=O)(c2ccccc2)CC1` (stereo not drawn) yielded a TGI [1] greater than 100 µM, a TGI [2] greater than 100 µM and a TGI [3] greater than 100 µM. For the same compound, the TGI [5] was greater than 100 µM, the TGI [6] was greater than 100 µM and the TGI [7] was greater than 100 µM. For the same compound, the TGI [8] was greater than 100 µM, the TGI [9] was greater than 100 µM and the TGI [10] was greater than 100 µM. For the same compound, the TGI [11] was greater than 100 µM, the TGI [12] was greater than 100 µM and the TGI [13] was greater than 100 µM. It also gave a TGI [16] greater than 100 µM, a TGI [17] greater than 100 µM and a TGI [18] greater than 100 µM. The TGI [19] was greater than 100 µM, the TGI [20] was greater than 100 µM and the TGI [21] was greater than 100 µM. The TGI [22] was greater than 100 µM, the TGI [23] was greater than 100 µM and the TGI [24] was greater than 100 µM. For the same compound, the TGI [25] was greater than 100 µM, the TGI [26] was greater than 100 µM and the TGI [27] was 0.958 µM. For the same compound, the TGI [28] was greater than 100 µM, the TGI [29] was greater than 100 µM and the TGI [31] was greater than 100 µM. For the same compound, the TGI [32] was greater than 100 µM, the TGI [33] was greater than 100 µM and the TGI [34] was greater than 100 µM. It also gave a TGI [35] greater than 100 µM, a TGI [36] greater than 100 µM and a TGI [37] greater than 100 µM. For the same compound, the TGI [57] was greater than 100 µM, the TGI [38] was greater than 100 µM and the TGI [39] was greater than 100 µM. It also gave a TGI [41] greater than 100 µM, a TGI [42] greater than 100 µM and a TGI [43] greater than 100 µM. It also gave a TGI [44] greater than 100 µM, a TGI [45] greater than 100 µM and a TGI [46] greater than 100 µM. It also gave a TGI [58] greater than 100 µM, a TGI [47] greater than 100 µM and a TGI [48] greater than 100 µM. The TGI [49] was greater than 100 µM, the TGI [50] was greater than 100 µM and the TGI [51] was greater than 100 µM. For the same compound, the TGI [53] was greater than 100 µM, the TGI [54] was greater than 100 µM and the TGI [55] was greater than 100 µM. For the same compound, the TGI [56] was greater than 100 µM.
